From patent US12240844B2 (Voronoi, Inc., priority 2019, dated 2025)

Assays:
Assay type in all cases: biochemical
[1] = target: LRRK2 (G2019S) (Homo sapiens, UniProt Q5S007, G2019S); experiment: LRRK2 G2019S enzyme inhibition, ADP-Glo kinase assay; parameters: purchased SignalChem L10-12GG
Procedure, shortened: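 Activity read as ADP-Glo luminescence, normalized to untreated solvent control, with IC50 (nM) fitted over 12 final compound levels (top 50 μM). Reaction: 2 h, 25° C, human LRRK2 G2019S 16 ng, ATP 25 μM, substrate 0.2 μg, in Tris-HCl pH 7.4 with MgCl2, BSA and DTT.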

[2] = target: T1, human GST-CLK1 (129-end) (Homo sapiens, UniProt P49759); experiment: GST-CLK1 enzyme inhibition, ADP-Glo kinase assay; conditions: ATP 10 uM
T1 construct: purified human GST-CLK1 (129-end, Signalchem) enzyme; GST; purchased Signalchem
Procedure, shortened: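 ADP formation was read by ADP-Glo luminescence after 1 h at 25° C with 3 ng human GST-CLK1 (129-end), substrate and 10 uM ATP in Tris pH 7.4 buffer containing MgCl2, BSA and DTT. Inhibition relative to untreated solvent control gave IC50 (nM), run in triplicate.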

[3] = target: T2, human GST-DYRK1A (full length) (Homo sapiens, UniProt Q13627); experiment: GST-DYRK1A enzyme inhibition, ADP-Glo kinase assay; conditions: read-out: DYRK1 IC50
T2 construct: purified human GST-DYRK1A (full length, Thermo scientifics) enzyme; GST; purchased Thermo scientifics
Procedure, shortened: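 ADP-Glo luminescence quantified kinase activity after a 1 h, 25° C reaction of 10 ng full-length GST-tagged human DYRK1A, substrate and 10 uM ATP in Tris-HCl buffer pH 7.4 with MgCl2, BSA and DTT. Triplicate IC50 values (nM) calculated relative to untreated solvent control.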

[4] = target: LRRK2 (Homo sapiens, UniProt Q5S007); experiment: LRRK2 enzyme inhibition, ADP-Glo kinase assay; parameters: purchased Invitrogen PR8604B
Procedure, shortened: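 ADP-Glo luminescence read after 2 h at 25° C, 10 μM ATP, 25 ng purified human LRRK2 and […] substrate in Tris-HCl pH7.4 buffer with MgCl2, BSA, DTT. Twelve final concentrations, 50 μM down to 0.000001024 μM; IC50 (nM) from inhibition relative to untreated solvent control.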

LRRK2 (G2019S), sequence (Q5S007 970-2527 G2019S limits assumed): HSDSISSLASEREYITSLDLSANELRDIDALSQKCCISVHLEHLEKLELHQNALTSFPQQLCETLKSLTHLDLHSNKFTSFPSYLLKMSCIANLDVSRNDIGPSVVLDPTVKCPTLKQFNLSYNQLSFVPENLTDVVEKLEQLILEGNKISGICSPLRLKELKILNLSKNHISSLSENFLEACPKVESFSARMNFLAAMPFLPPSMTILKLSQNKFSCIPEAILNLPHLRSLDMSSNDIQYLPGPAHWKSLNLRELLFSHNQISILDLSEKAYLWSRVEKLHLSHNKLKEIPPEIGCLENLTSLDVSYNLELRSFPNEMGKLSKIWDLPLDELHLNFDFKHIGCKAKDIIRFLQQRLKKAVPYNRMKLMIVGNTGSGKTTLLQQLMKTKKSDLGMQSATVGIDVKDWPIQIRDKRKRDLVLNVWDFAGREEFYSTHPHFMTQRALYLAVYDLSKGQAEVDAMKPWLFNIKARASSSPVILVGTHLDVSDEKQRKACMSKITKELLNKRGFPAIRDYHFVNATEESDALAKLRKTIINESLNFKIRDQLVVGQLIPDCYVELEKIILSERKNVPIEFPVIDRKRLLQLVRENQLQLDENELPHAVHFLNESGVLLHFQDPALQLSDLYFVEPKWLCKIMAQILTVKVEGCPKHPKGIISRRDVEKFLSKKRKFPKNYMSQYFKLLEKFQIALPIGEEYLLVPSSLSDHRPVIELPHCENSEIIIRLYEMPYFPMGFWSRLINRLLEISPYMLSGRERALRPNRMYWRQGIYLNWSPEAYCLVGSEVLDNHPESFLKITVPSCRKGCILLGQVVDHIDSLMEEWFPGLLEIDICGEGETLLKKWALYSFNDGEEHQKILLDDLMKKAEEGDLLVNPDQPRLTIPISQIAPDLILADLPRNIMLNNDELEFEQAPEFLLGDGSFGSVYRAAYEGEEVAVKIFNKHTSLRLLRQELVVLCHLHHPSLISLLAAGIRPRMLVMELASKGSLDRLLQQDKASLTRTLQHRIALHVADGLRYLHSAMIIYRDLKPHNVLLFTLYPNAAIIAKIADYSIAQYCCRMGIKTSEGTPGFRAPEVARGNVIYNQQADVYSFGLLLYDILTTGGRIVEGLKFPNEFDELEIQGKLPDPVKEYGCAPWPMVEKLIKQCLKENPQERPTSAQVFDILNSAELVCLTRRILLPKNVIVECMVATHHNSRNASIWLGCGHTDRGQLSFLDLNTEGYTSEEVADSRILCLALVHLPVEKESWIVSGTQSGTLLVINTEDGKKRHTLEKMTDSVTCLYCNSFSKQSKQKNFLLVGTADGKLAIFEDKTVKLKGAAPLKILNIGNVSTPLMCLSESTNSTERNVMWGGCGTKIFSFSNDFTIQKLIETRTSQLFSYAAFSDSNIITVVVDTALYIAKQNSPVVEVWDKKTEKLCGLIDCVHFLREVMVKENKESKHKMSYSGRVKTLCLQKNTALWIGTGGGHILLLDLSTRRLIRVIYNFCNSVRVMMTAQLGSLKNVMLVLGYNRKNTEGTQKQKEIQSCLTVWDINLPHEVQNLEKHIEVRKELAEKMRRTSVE
T1 sequence (P49759 129-484 limits assumed): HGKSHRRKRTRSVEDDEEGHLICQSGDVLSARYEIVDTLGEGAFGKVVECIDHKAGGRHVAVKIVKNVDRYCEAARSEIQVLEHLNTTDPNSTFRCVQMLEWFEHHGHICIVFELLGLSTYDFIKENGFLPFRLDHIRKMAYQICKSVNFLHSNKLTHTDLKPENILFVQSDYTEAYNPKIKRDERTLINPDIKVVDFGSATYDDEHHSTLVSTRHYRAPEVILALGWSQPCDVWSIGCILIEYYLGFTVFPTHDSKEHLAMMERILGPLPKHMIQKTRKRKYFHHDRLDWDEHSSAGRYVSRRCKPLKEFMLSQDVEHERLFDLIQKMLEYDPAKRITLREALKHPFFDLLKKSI
LRRK2, sequence (Q5S007 970-2527 limits assumed): as the sequence (Q5S007 970-2527 G2019S limits assumed) above, with S1050G counted along it

Row | SMILES | IC50 [1] | IC50 [2] | IC50 [3] | IC50 [4]
1 | COCCNc1cc(Nc2ccc(C(=O)N3CCC(N4CCOCC4)CC3)c3c2OCC3)nc2[nH]cc(C(F)(F)F)c12 [Example 55, (7-((4-((2-methoxyethyl)amino)-3-(trifluoromethyl)-1H-pyrrolo[2,3-b]pyridin-6-yl)amino)-2,3-dihydrobenzofuran-4-yl)(4-morpholinopiperidin-1-yl)methanone] | < 100 nM | < 100 nM | < 100 nM | < 100 nM
2 | CCNc1cc(Nc2ccc(C(=O)N3CCC(N4CCOCC4)CC3)c3c2OCC3)nc2[nH]cc(C(F)(F)F)c12 [Example 90, (7-((4-(ethylamino)-3-(trifluoromethyl)-1H-pyrrolo[2,3-b]pyridin-6-yl)amino)-2,3-dihydrobenzofuran-4-yl)(4-morpholinopiperidin-1-yl)methanone] | < 100 nM | < 100 nM | < 100 nM | < 100 nM
3 | O=C(c1ccc(Nc2cc(NC3CC3)c3c(C(F)(F)F)c[nH]c3n2)c2c1CCO2)N1CCC(N2CCOCC2)CC1 [Example 92, (7-((4-(cyclopropylamino)-3-(trifluoromethyl)-1H-pyrrolo[2,3-b]pyridin-6-yl)amino)-2,3-dihydrobenzofuran-4-yl)(4-morpholinopiperidin-1-yl)methanone] | < 100 nM | < 100 nM | < 100 nM | < 100 nM
4 | CCNc1cc(Nc2ccc(P3(=O)CCN(C4CCOCC4)CC3)cc2OC)nc2[nH]cc(C(F)(F)F)c12 [Example 94, 4-(4-((4-(ethylamino)-3-(trifluoromethyl)-1H-pyrrolo[2,3-b]pyridin-6-yl)amino)-3-methoxyphenyl)-1-(tetrahydro-2H-pyran-4-yl)-1,4-azaphosphinane 4-oxide] | 101 to 300 nM | 101 to 300 nM | 101 to 300 nM | 101 to 300 nM
5 | CCNc1cc(Nc2ccc(S(=O)(=O)N3CCC(N4CCOCC4)CC3)c3c2OCCO3)nc2[nH]cc(C(F)(F)F)c12 [Example 96, N^4-ethyl-N^6-(8-((4-morpholonopiperidin-1-yl)sulfonyl)-2,3-dihydrobenzo [b] [1,4]dioxin-5-yl)-3-(trifluoromethyl)-1H-pyrrolo[2,3-b]pyridine-4,6-diamine] | < 100 nM | 101 to 300 nM | 301 to 1000 nM | < 100 nM
6 | COCCNc1cc(Nc2ccc(S(=O)(=O)N3CCC(N4CCOCC4)CC3)c3c2OCCO3)nc2[nH]cc(C(F)(F)F)c12 [Example 97, N^4-(2-methoxyethyl)-N^6-(8-((4-morpholonopiperidin-1-yl)sulfonyl)-2,3-dihydrobenzo[b] [1,4]dioxin-5-yl)-3-(trifluoromethyl)-1H-pyrrolo[2,3-b]pyridine-4,6-diamine] | < 100 nM | < 100 nM | 101 to 300 nM | < 100 nM
7 | CCNc1cc(Nc2ccc(C(=O)N3CCC(N4C[C@@H]5C[C@H]4CO5)CC3)c3c2OCC3)nc2[nH]cc(C(F)(F)F)c12 [Example 105, (4-((1S,4S)-2-oxa-5-azabicyclo[2.2.1]heptan-5-yl)piperidin-1-yl)(7-((4-(ethylamino)-3-(trifluoromethyl)-1H-pyrrolo[2,3-b]pyridin-6-yl)amino)-2,3-dihydrobenzofuran-4-yl)methanone] | < 100 nM | < 100 nM | < 100 nM | < 100 nM
8 | CNc1cc(Nc2ccc(C(=O)N3CCC(N4CCOCC4)CC3)c3c2OCCO3)nc2[nH]cc(C(F)(F)F)c12 [Example 160, (8-((4-(methylamino)-3-(trifluoromethyl)-1H-pyrrolo[2,3-b]pyridin-6-yl)amino)-2,3-dihydrobenzo [b] [1,4]dioxin-5-yl)(4-morpholinopiperidin-1-yl)methanone] | < 100 nM | < 100 nM | 101 to 300 nM | < 100 nM
9 | CCCNc1cc(Nc2ccc(C(=O)N3CCC(N4CCOCC4)CC3)c3c2OCCO3)nc2[nH]cc(C(F)(F)F)c12 [Example 162, (4-morpholinopiperidin-1-yl)(8-((4-(propylamino)-3-(trifluoromethyl)-1H-pyrrolo[2,3-b]pyridin-6-yl)amino)-2,3-dihydrobenzo[b] [1,4]dioxin-5-yl)methanone] | < 100 nM | < 100 nM | 101 to 300 nM | < 100 nM
10 | COc1cc(S(=O)(=O)N2CCC(N3CCOCC3)CC2)ccc1Nc1cc(NCCS(C)(=O)=O)c2c(C(F)(F)F)c[nH]c2n1 [Example 194, N^6-(2-methoxy-4-((4-morpholinopiperidin-1-yl)sulfonyl)phenyl)-N^4-(2-(methylsulfonyl)ethyl)-3-(trifluoromethyl)-1H-pyrrolo[2,3-b]pyridine-4,6-diamine] | < 100 nM | < 100 nM | < 100 nM | < 100 nM
11 | CNc1cc(Nc2ccc(P3(=O)CCN(C4CC4)CC3)cc2OC)nc2[nH]cc(C(F)(F)F)c12 [Example 205, 1-cyclopropyl-4-(3-methoxy-4-((4-(methylamino)-3-(trifluoromethyl)-1H-pyrrolo[2,3-b]pyridin-6-yl)amino)phenyl)-1,4-azaphosphinane 4-oxide] | 101 to 300 nM | < 100 nM | < 100 nM | 101 to 300 nM
12 | COCCNc1cc(Nc2ccc(P3(=O)CCN(C4CC4)CC3)cc2OC)nc2[nH]cc(C(F)(F)F)c12 [Example 207, 1-cyclopropyl-4-(3-methoxy-4-((4-((2-methoxyethyl)amino)-3-(trifluoromethyl)-1H-pyrrolo[2,3-b]pyridin-6-yl)amino)phenyl)-1,4-azaphosphinane 4-oxide] | 101 to 300 nM | 101 to 300 nM | < 100 nM | 101 to 300 nM
13 | CNc1cc(Nc2ccc(C(=O)N3CC[C@@H](N4CCOCC4)C3)c3c2OCC3)nc2[nH]cc(C(F)(F)F)c12 [Example 214, (R)-(7-((4-(methylamino)-3-(trifluoromethyl)-1H-pyrrolo[2,3-b]pyridin-6-yl)amino)-2,3-dihydrobenzofuran-4-yl)(3-morpholinopyrrolidin-1-yl)methanone] | < 100 nM | < 100 nM | < 100 nM | < 100 nM
14 | O=C(c1ccc(Nc2cc(C3CC3)c3c(C(F)(F)F)c[nH]c3n2)c2c1OCCO2)N1CCOCC1 [Example 220, (8-((4-cyclopropyl-3-(trifluoromethyl)-1H-pyrrolo[2,3-b]pyridin-6-yl)amino)-2,3-dihydrobenzo[b] [1,4]dioxin-5-yl)(morpholino) methanone] | 301 to 1000 nM | 301 to 1000 nM | 301 to 1000 nM | 301 to 1000 nM
15 | COc1cc(S(=O)(=O)N2CCOCC2)ccc1Nc1cc(C2CC2)c2c(C#N)c[nH]c2n1 [Example 227, 4-cyclopropyl-6-((2-methoxy-4-(morpholinosulfonyl)phenyl)amino)-1H-pyrrolo[2,3-b]pyridine-3-carbonitrile] | 101 to 300 nM | 301 to 1000 nM | 301 to 1000 nM | < 100 nM
16 | CNc1cc(Nc2ccc(S(=O)(=O)N3CCC(N4CCOCC4)CC3)c3c2OCCO3)nc2[nH]cc(C(F)(F)F)c12 [Example 233, N^4-methyl-N^6-(8-((4-morpholinopiperidin-1-yl)sulfonyl)-2,3-dihydrobenzo [b] [1,4]dioxin-5-yl)-3-(trifluoromethyl)-1H-pyrrolo[2,3-b]pyridine-4,6-diamine] | < 100 nM | < 100 nM | 101 to 300 nM | < 100 nM
17 | CNc1cc(Nc2ccc(C(=O)N3CCC(N4CCOCC4)CC3)c3c2OCC3)nc2[nH]cc(C(F)(F)F)c12 [Example 234, (7-((4-(methylamino)-3-(trifluoromethyl)-1H-pyrrolo[2,3-b]pyridin-6-yl)amino)-2,3-dihydrobenzofuran-4-yl)(4-morpholinopiperidin-1-yl)methanone] | < 100 nM | < 100 nM | < 100 nM | < 100 nM
18 | CNc1cc(Nc2ccc(C(=O)N3CCC(N4C[C@@H]5C[C@H]4CO5)CC3)c3c2OCC3)nc2[nH]cc(C(F)(F)F)c12 [Example 241, (4-((1S,4S)-2-oxa-5-azabicyclo[2.2.1]heptan-5-yl)piperidin-1-yl)(7-((4-(methylamino)-3-(trifluoromethyl)-1H-pyrrolo[2,3-b]pyridin-6-yl)amino)-2,3-dihydrobenzofuran-4-yl)methanone] | < 100 nM | < 100 nM | < 100 nM | < 100 nM
19 | CNc1cc(Nc2ccc(S(=O)(=O)N3CCC(N4C[C@H]5C[C@@H]4CO5)CC3)cc2OC)nc2[nH]cc(C(F)(F)F)c12 [Example 243, N^6-(4-((4-((1R,4R)-2-oxa-5-azabicyclo[2.2.1]heptan-5-yl)piperidin-1-yl)sulfonyl)-2-methoxyphenyl)-N^4-methyl-3-(trifluoromethyl)-1H-pyrrolo[2,3-b]pyridine-4,6-diamine] | < 100 nM | < 100 nM | < 100 nM | < 100 nM
